Consider 4 molecules from ChEMBL document CHEMBL3396981, “Synthesis and in vitro biological evaluation of 2-(phenylcarbamoyl)phenyl 4-substituted benzoates” (Bioorg Med Chem, 2015).

≈ marks a conversion by molar mass, not a printed value. Calls of active or inactive are those of the source. The calls are words filed in the database; no cut-off is given here. Where only a bound is given, the exact number is not on record here.

For data set [1], the system named is Staphylococcus aureus. The experiment in a line: Antibacterial activity against Staphylococcus aureus CCM 4516/08 after 48 hrs by broth microdilution method. It counts as functional. As to conditions: CCM 4516/08, 48 h. A general note: In broth dilution the organism is exposed to a series of concentrations in liquid medium.
Data set [2] concerns Staphylococcus aureus. The experiment in a line: Antibacterial activity against methicillin-resistant Staphylococcus aureus H 5996/08 after 48 hrs by broth microdilution method. The class given is functional. As to conditions: H 5996/08, 48 h.
Data set [3] concerns Staphylococcus epidermidis. The experiment in a line: Antibacterial activity against Staphylococcus epidermidis H 6966/08 after 24 hrs by broth microdilution method. It counts as functional. As to conditions: H 6966/08, 24 h.
Data set [4] relates to Enterococcus sp. Nature of the data set: Antibacterial activity against Enterococcus sp. J 14365/08 after 24 hrs by broth microdilution method. It counts as functional. As to conditions: J 14365/08, 24 h.
In data set [5] the test system is Staphylococcus aureus. The experiment in a line: Antibacterial activity against Staphylococcus aureus CCM 4516/08 after 24 hrs by broth microdilution method. The class given is functional. As to conditions: CCM 4516/08, 24 h.
Data set [6] deals with HepG2. The experiment in a line: Cytotoxicity against human HepG2 cells after 72 hrs by MTT assay. The class given is cell-based. As to conditions: HepG2, 72 h. On the technique in general: Formazan colour is commonly taken as a measure of viable cells.
Data set [7] concerns Enterococcus sp. The experiment in a line: Antibacterial activity against Enterococcus sp. J 14365/08 after 48 hrs by broth microdilution method. It counts as functional. As to conditions: J 14365/08, 48 h.
Data set [8] is described as follows: Selectivity index, ratio of IC50 for human HepG2 cells to MIC for Staphylococcus aureus CCM 4516/08.
Data set [9] has as its system Staphylococcus aureus. The experiment in a line: Antibacterial activity against methicillin-resistant Staphylococcus aureus H 5996/08 after 24 hrs by broth microdilution method. The class given is functional. As to conditions: H 5996/08, 24 h.
Data set [10] deals with Staphylococcus epidermidis. The experiment in a line: Antibacterial activity against Staphylococcus epidermidis H 6966/08 after 48 hrs by broth microdilution method. The class given is functional. As to conditions: H 6966/08, 48 h.
For a further data set, the system named is Lichtheimia corymbifera. Nature of the data set: Antifungal activity against Absidia corymbifera 272 after 24 to 48 hrs by broth dilution method. It counts as functional, organism-based.
Data set [11] in a line: Selectivity index, ratio of IC50 for human HepG2 cells to MIC for Mycobacterium tuberculosis. It counts as toxicity, cell-based. As to conditions: read-out: Selectivity Index.
In data set [12] the test system is Mycobacterium kansasii. Nature of the data set: Antimycobacterial activity against Mycobacterium kansasii 235/80 after 7 days by microdilution method. It counts as functional. As to conditions: 235/80, 168 h.
For data set [13], the system named is Mycobacterium kansasii. Nature of the data set: Antimycobacterial activity against Mycobacterium kansasii 235/80 after 14 days by microdilution method. The class given is functional. As to conditions: 235/80, 336 h.
The subject of data set [14] is Trichophyton mentagrophytes. The experiment in a line: Antifungal activity against Trichophyton mentagrophytes 445 after 24 to 48 hrs by broth dilution method. The class given is functional, organism-based.
In data set [15] the test system is Mycobacterium kansasii. Nature of the data set: Antimycobacterial activity against Mycobacterium kansasii 6509/96 after 14 days by microdilution method. The class given is functional. As to conditions: 6509/96, 336 h.
The subject of another data set is Nakaseomyces glabratus. The experiment in a line: Antifungal activity against Candida glabrata 20/I after 24 to 48 hrs by broth dilution method. It counts as functional, organism-based.
In data set [16] the test system is Mycobacterium kansasii. Nature of the data set: Antimycobacterial activity against Mycobacterium kansasii 6509/96 after 21 days by microdilution method. As to conditions: 6509/96, 504 h. It counts as functional.
The test system of a further data set is Candida tropicalis. The experiment in a line: Antifungal activity against Candida tropicalis 156 after 24 to 48 hrs by broth dilution method. The class given is functional, organism-based.
Data set [17] deals with Trichosporon asahii. The experiment in a line: Antifungal activity against Trichosporon asahii 1188 after 24 hrs by broth microdilution method. As to conditions: Trichosporon asahii, 1188, 24 h. The class given is functional.
For data set [18], the system named is HepG2. Nature of the data set: Cytostatic activity against human HepG2 cells after 72 hrs by MTT assay. As to conditions: HepG2, 72 h. The class given is functional, cell-based.
For data set [19], the system named is Mycobacterium kansasii. Nature of the data set: Antimycobacterial activity against Mycobacterium kansasii 6509/96 after 7 days by microdilution method. It counts as functional. As to conditions: 6509/96, 168 h.
Another data set concerns Candida albicans. The experiment in a line: Antifungal activity against Candida albicans ATCC 44859 after 24 to 48 hrs by broth dilution method. The class given is functional, organism-based.
A further data set concerns Pichia kudriavzevii. Nature of the data set: Antifungal activity against Candida krusei E28 after 24 to 48 hrs by broth dilution method. It counts as functional, organism-based.
In data set [20] the test system is Mycobacterium tuberculosis. Nature of the data set: Antimycobacterial activity against Mycobacterium tuberculosis H37Rv 331/88 after 14 days by microdilution method. As to conditions: H37Rv 331/88, 336 h. It counts as functional.
For data set [21], the system named is Mycobacterium avium. The experiment in a line: Antimycobacterial activity against INH,RIF,OFX,EMB-resistant Mycobacterium avium 330/88 after 14 days by microdilution method. As to conditions: 330/88, 336 h. It counts as functional.
The test system of data set [22] is Mycobacterium avium. Nature of the data set: Antimycobacterial activity against INH,RIF,OFX,EMB-resistant Mycobacterium avium 330/88 after 21 days by microdilution method. It counts as functional. As to conditions: 330/88, 504 h.
Data set [23] is described as follows: Selectivity index, ratio of IC50 for human HepG2 cells to MIC for atypical mycobacteria.
The test system of data set [24] is Trichosporon asahii. The experiment in a line: Antifungal activity against Trichosporon asahii 1188 after 48 hrs by broth microdilution method. It counts as functional. As to conditions: Trichosporon asahii, 1188, 48 h.
The subject of data set [25] is Mycobacterium tuberculosis. The experiment in a line: Antimycobacterial activity against Mycobacterium tuberculosis H37Rv 331/88 after 21 days by microdilution method. It counts as functional. As to conditions: H37Rv 331/88, 504 h.
A further data set deals with Aspergillus fumigatus. The experiment in a line: Antifungal activity against Aspergillus fumigatus 231 after 24 to 48 hrs by broth dilution method. It counts as functional, organism-based.
A short description of data set [26]: Selectivity index, ratio of IC50 for human HepG2 cells to MIC for Staphylococci.
In data set [27] the test system is Mycobacterium kansasii. The experiment in a line: Antimycobacterial activity against Mycobacterium kansasii 235/80 after 21 days by microdilution method. It counts as functional. As to conditions: 235/80, 504 h.
The nature of a further data set: in vitro. As to conditions: human, HepG2 cells.

Description for in vitro: Selectivity index, ratio of IC50 for human HepG2 cells to MIC for Mycobacterium kansasii 6509/96

`CC1(C)S[C@@H]2[C@H](NC(=O)Cc3ccccc3)C(=O)N2[C@H]1C(=O)O` [PENICILLIN G]: the minimum inhibitory concentration (MIC) was determined as 0.98 µM (≈ 0.328 µg/mL) against Staphylococcus aureus [1]; 125 µM (≈ 41.8 µg/mL) with Staphylococcus aureus [2]; 250 µM (≈ 83.6 µg/mL) in [3]; 7.81 µM (≈ 2.61 µg/mL) in the data set on Enterococcus sp. [4]; 0.98 µM (≈ 0.328 µg/mL) in the data set on Staphylococcus aureus [5]; 15.6 µM (≈ 5.22 µg/mL) against Enterococcus sp. [7]. Also, the values for the minimal inhibitory concentration (MIC) (against Staphylococcus aureus [9]; in data set [10]) were 62.5 µM (≈ 20.9 µg/mL) and 250 µM (≈ 83.6 µg/mL), respectively. Also, the IC50 in the data set on HepG2 [6] was more than 10000 µM. Besides, the “Selectivity Index” value in data set [8] is given as more than 10204.

As to `O=C(Oc1ccc(Cl)cc1C(=O)Nc1ccc(Cl)c(Cl)c1)c1ccc([N+](=O)[O-])cc1`, the result (in the data set with Lichtheimia corymbifera; in data set [14]; in the data set with Nakaseomyces glabratus; in the data set with Candida tropicalis; in the data set on Candida albicans; in the data set with Pichia kudriavzevii) was inactive. The result in the data set with Aspergillus fumigatus was inactive. Moreover, in [11], the selectivity ratio was more than 50. In addition, the MIC in the data set on Mycobacterium kansasii [12] came to 2 µM (≈ 0.931 µg/mL); with Mycobacterium kansasii [13] it was 4 µM (≈ 1.86 µg/mL); against Staphylococcus aureus [1] it was 0.49 µM (≈ 0.228 µg/mL); against Mycobacterium kansasii [15], 4 µM (≈ 1.86 µg/mL); against Staphylococcus aureus [2] it was 0.49 µM (≈ 0.228 µg/mL); against Mycobacterium kansasii [16], 4 µM (≈ 1.86 µg/mL). In addition, the minimal inhibitory concentration (MIC) in [3] was 0.49 µM (≈ 0.228 µg/mL); in the data set on Enterococcus sp. [4] it was 62.5 µM (≈ 29.1 µg/mL); with Trichosporon asahii [17], 31.2 µM (≈ 14.6 µg/mL); against Mycobacterium kansasii [19] it was 2 µM (≈ 0.931 µg/mL); in [20], 0.5 µM (≈ 0.233 µg/mL); in the data set with Mycobacterium avium [21], 8 µM (≈ 3.73 µg/mL). In addition, the MIC against Mycobacterium avium [22] is 8 µM (≈ 3.73 µg/mL); in the data set with Staphylococcus aureus [5] it was 0.49 µM (≈ 0.228 µg/mL); against Enterococcus sp. [7] it was more than 125 µM; against Trichosporon asahii [24], more than 125 µM; in [25], 1 µM (≈ 0.466 µg/mL); against Staphylococcus aureus [9], 0.49 µM (≈ 0.228 µg/mL). In addition, the minimum inhibitory concentration (MIC) is 4 µM (≈ 1.86 µg/mL) in the data set with Mycobacterium kansasii [27] and 0.49 µM (≈ 0.228 µg/mL) in [10]. For the same molecule, the IC50 is 3.55 µM in the data set on HepG2 [18] and more than 50 µM with HepG2 [6]. Besides, the “Selectivity Index” value in data set [23] is given as more than 6.25; in [26], more than 102.

As for `NNC(=O)c1ccncc1` [ISONIAZID], the selectivity ratio in data set [11] is more than 250; in “in vitro”, not below 31.3. The minimum inhibitory concentration (MIC) was more than 250 µM in the data set on Mycobacterium kansasii [12]; more than 250 µM against Mycobacterium kansasii [13]; 4 µM (≈ 0.549 µg/mL) against Mycobacterium kansasii [15]; 4 µM (≈ 0.549 µg/mL) against Mycobacterium kansasii [16]; 2 µM (≈ 0.274 µg/mL) against Mycobacterium kansasii [19]; 0.5 µM (≈ 0.0686 µg/mL) in data set [20]. The minimal inhibitory concentration (MIC) in the data set with Mycobacterium avium [21] was more than 250 µM; against Mycobacterium avium [22], more than 250 µM; in [25] it was 0.5 µM (≈ 0.0686 µg/mL); in the data set on Mycobacterium kansasii [27] it was more than 250 µM. Moreover, the IC50 in the data set with HepG2 [6] was more than 250 µM.

For the molecule `O=C(Oc1ccc(Cl)cc1C(=O)Nc1ccc(Cl)c(Cl)c1)c1ccc(Br)cc1`, the outcome (with Lichtheimia corymbifera; in [14]; with Nakaseomyces glabratus; in the data set on Candida tropicalis; in the data set on Candida albicans; in the data set with Pichia kudriavzevii) was inactive. The result with Aspergillus fumigatus was inactive. In addition, the selectivity ratio in [11] was more than 50. Further, the MIC was determined as 2 µM (≈ 0.999 µg/mL) with Mycobacterium kansasii [12]; 4 µM (≈ 2 µg/mL) in the data set with Mycobacterium kansasii [13]; 0.49 µM (≈ 0.245 µg/mL) in the data set on Staphylococcus aureus [1]; 4 µM (≈ 2 µg/mL) in the data set on Mycobacterium kansasii [15]; 0.49 µM (≈ 0.245 µg/mL) against Staphylococcus aureus [2]; 4 µM (≈ 2 µg/mL) in the data set with Mycobacterium kansasii [16]. Moreover, the minimum inhibitory concentration (MIC) in data set [3] is 0.49 µM (≈ 0.245 µg/mL); with Enterococcus sp. [4] it was 31.2 µM (≈ 15.6 µg/mL); in the data set on Trichosporon asahii [17] it was 500 µM (≈ 250 µg/mL); in the data set on Mycobacterium kansasii [19], 1 µM (≈ 0.5 µg/mL); in [20], 1 µM (≈ 0.5 µg/mL); in the data set on Mycobacterium avium [21], 8 µM (≈ 4 µg/mL). Also, the MIC in the data set on Mycobacterium avium [22] is 8 µM (≈ 4 µg/mL); against Staphylococcus aureus [5], 0.49 µM (≈ 0.245 µg/mL); with Enterococcus sp. [7], 500 µM (≈ 250 µg/mL); in the data set with Trichosporon asahii [24], more than 500 µM; in data set [25], 1 µM (≈ 0.5 µg/mL); with Staphylococcus aureus [9], 0.49 µM (≈ 0.245 µg/mL). Moreover, the figures for the minimal inhibitory concentration (MIC) (with Mycobacterium kansasii [27]; in [10]) were 4 µM (≈ 2 µg/mL) and 0.49 µM (≈ 0.245 µg/mL), respectively. Also, the IC50 is 2.5 µM in the data set with HepG2 [18] and more than 50 µM in the data set on HepG2 [6]. Further, the “Selectivity Index” value is listed as more than 6.25 in [23] and more than 102 in data set [26].

A word on the MIC: it is the lowest concentration that inhibits growth of the organism. The low end stands for a more susceptible organism, the high end for a less susceptible organism. By IC50 is commonly meant the concentration needed to halve the response being measured. A low value points to greater potency.
